Reference: paper PMC12535076, “Neurotherapeutic effects of Vutiglabridin as a Paraoxonase-2 modulator in preclinical models of Parkinson’s disease” (Molecular Neurodegeneration, 2025)

Experiments:
[1] = Octanol-water partition coefficient measurement; assay type: physicochemical; conditions: octanol / pH 7.4 phosphate buffer, octanol / pH7.4 phosphate buffer, room temperature 24 h, aqueous phase below LOQ, LOQ value used, read-out: octanol-water partition coefficient (log D)
Description: 1000 µg/mL of Vuti was mixed with octanol, and an aliquot of 2 mL was mixed with the same amount of aliquot of 2 mL of pH7.4 phosphate buffer. The mixed solution was shaken at room temperature for 24 h, and the aqueous and octanol phase was separately analyzed for Vuti concentration via HLPC. The limit of quantification (LOQ) was 0.2012 µg/ml. Three replicates were performed. Because no concentration was detected in the aqueous phase, LOQ value was used; the actual concentration in the aqueous phase is expected to be lower than LOQ. The octanol-water partition coefficient Log D was calculated as log of concentration in octanol phase divided by concentration in aqueous phase.
(a) Measurement of Vuti concentration in octanol and aqueous phase (pH7.4 phosphate buffer) via HPLC. The mean value of three replicates was used, and the limit of quantification (LOQ) value was used to calculate Log D as a log of concentration in the octanol phase divided by the concentration in the aqueous phase. (b) Efflux ratios (Papp(B→A)/Papp(A→B)) of Vuti in three types of cell monolayers, with or without P-glycoprotein (P-gp) inhibitor GF120918. (c) Schematic of 14C-labeling of Vuti. Attachment to the ethoxy group is warranted because it is robustly maintained throughout metabolism. (d) Plasma radioactivity concentration in Sprague-Dawley rats after a single administration of 10 mg/kg of 14C-Vuti (n = 3).

[2] = target: T1, PON2 in mouse brain tissue (Mus musculus, UniProt Q62086); test: Cellular thermal shift assay (CESTA) of PON2 in brain tissue; assay type: binding
T1 construct: Brain tissue pieces were pulverized under frozen conditions in a mortar with liquid nitrogen; from tissue; host or cells: brain tissue of mice dosed orally with vehicle or Vuti for 5 days
Description: Interaction of PON2 and Vuti in mouse brain tissue was evaluated by Cellular Thermal Shift Assay (CESTA®) in vivo [65] (Pelago Bioscience AB, Solna, Sweden). Briefly, mice were orally administered vehicle or Vuti at 50 mg/kg (Vuti 50) or 100 mg/kg (Vuti 100) for 5 days. Brain tissue pieces were pulverized under frozen conditions in a mortar with liquid nitrogen. Equal amounts of tissue powder were placed into 8 or 12 separate PCR strip tubes for each set of the treated tissues and kept frozen until heat challenged. Pre-heated 60 µl HBSS buffer was added to the tubes and samples were immediately subjected to an 8 or 12-step heat challenge for 3 min between 37 °C and 59 °C. Samples were then snap-frozen in liquid nitrogen and lysed by freeze-thawing. After the first round of freeze thawing 1% Brij 35 was added to the samples and the samples were incubated with shaking for 20 min at 4 °C before the two last rounds of freeze thawing. After centrifugation at 20 000 x g for 20 min, 35 µl of the supernatant was mixed with 17,5 µl gel loading buffer (NuPAGE LDS sample buffer, Thermo Fisher Scientific, Waltham, MA, USA). Total protein lysate (6 µg) was separated on 12% SDS-PAGE gels. […] Western Blot detected PON2 protein (abcam, ab183718) normalized to SOD-1, a temperature stable protein band observed in the full protein gel detection with house-keeping gene.

[3] = system: panel of a total of 225 mammalian proteins; test: In vitro safety (off-target) screening panel; conditions: 225 targets: ion channels, GPCR, nuclear receptors, kinases, enzymes, transporters; data not shown
Description: The overall safety of Vuti has been already established through human phase 1 clinical trial (NCT04732988, NCT04733001, NCT04703764). However, for its potential repositioning as a central nervous system (CNS)-targeting drug candidate, we performed a comprehensive neurotoxicity assessment of Vuti through in vitro safety screening. Interactions of Vuti were tested against an extensive panel of a total of 225 mammalian proteins, including ion channels, G-protein coupled receptors (GPCR), nuclear receptors, kinases, non-kinase enzymes, and drug transporters, cardiac function, and drug-drug interactions. Additionally, these also examined whether Vuti interacted with reported direct targets of glabridin [37], such as estrogen receptor, peroxisome proliferator-activated receptor gamma (PPARγ), and cyclooxygenase 2 (COX-2).

T1 sequence (Q62086 whole entry): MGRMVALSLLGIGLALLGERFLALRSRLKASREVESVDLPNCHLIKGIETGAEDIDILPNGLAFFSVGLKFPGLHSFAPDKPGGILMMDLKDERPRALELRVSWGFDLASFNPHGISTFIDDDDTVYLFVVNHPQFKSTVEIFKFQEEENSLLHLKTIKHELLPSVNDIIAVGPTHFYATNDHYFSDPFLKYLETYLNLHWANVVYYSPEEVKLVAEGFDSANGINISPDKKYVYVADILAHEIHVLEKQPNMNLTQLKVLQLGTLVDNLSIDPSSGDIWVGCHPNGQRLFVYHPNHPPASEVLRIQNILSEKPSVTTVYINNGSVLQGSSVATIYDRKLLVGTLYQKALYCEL

CCOc1ccc(C2COc3c(ccc4c3CCC(C)(C)O4)C2)c(O)c1 (stereo not shown) [Vuti, Vutiglabridin]
logD at 24 h [1]: > 3.69
increase of the Tm of PON2 over vehicle group ([2]; Vuti 50 mg/kg for 5 days (Vuti 50)): approximately 1.3 °C
increase of the Tm of PON2 over vehicle group ([2]; Vuti 100 mg/kg for 5 days (Vuti 100)): ~1.4 °C
off-target interactions [3]: no significant unexpected targets
